Measured values taken from PMC13586173, “Synthetic cannabinoid receptor agonists inhibit the cardiac voltage-gated potassium channel hERG” (Acta Pharmacologica Sinica, 2026).
Where two headings read alike, the source gives them in different places.

Tests used:
[1] = target: KV7.1/KCNE1 (Homo sapiens, UniProt P51787); assay: Automated patch-clamp (APC, population patch), CHO cells stably expressing human KV7.1/KCNE1; type: cell-based; conditions: for KV7.1/KCNE1 channel Efficacy (max reduction in Gmax) Gmin, marked *: * Greatest efficacy achieved with a concentration between 10 and 30 µM (no fit); for KV7.1/KCNE1 channel Efficacy (max reduction in Gmax) Gmin: 1 = no reduction of Gmax, 0 = complete reduction
Description: Both hERG and KV7.1/KCNE1 contribute to cardiomyocyte repolarization (Fig. 1g). Inhibition of KV7.1/KCNE1 alone can be proarrhythmic. Moreover, under conditions with impaired hERG function, upregulation of KV7.1/KCNE1 has been proposed to partially compensate for the loss of hERG [38, 39]. […] To assess if SCRAs also affect KV7.1/KCNE1, we used mammalian CHO cells stably expressing human KV7.1/KCNE1. […] At 10 µM, 7 of the SCRAs caused a significant positive shift in V50 (Fig. 5e), with the largest shift induced by MDMB-[…] (ΔV50 = +10.3 ± 1.6 mV).
Automated patch-clamp recordings were performed at 22 °C.
For the KV7.1/KCNE1 voltage ladder protocol (SI Table VII) the solutions were present for 60 s before recording started. KV7.1/KCNE1 cells were kept at a holding voltage of −90 mV, with brief hyperpolarizing steps to −100 mV for 540 ms (to calculate ohmic leakage). […] The time between compound application and the first voltage protocol was 60 s. Time between sweeps was 15 s. The voltage ladder protocol was executed every 220 s.
For Gmax (rel.), N was set to –1. For ΔV50, N was set to 1.

[2] = target: hERG (KV11.1) (Homo sapiens, UniProt Q12809); assay: Automated planar patch-clamp (APC, QPatch II 48), voltage-ladder protocol, CHO cells stably expressing human hERG; conditions: for effect on Gmax of hERG (in words): APC concentration-response, 1.11 to 30 µM; for hERG channel Efficacy (max reduction in Gmax) Gmin: 0 = complete reduction
Source text: To assess the effect of a large set of SCRAs on hERG (see SI Table I and SI Fig. S1 for a list of the 36 included SCRAs and corresponding structures), we used the automated planar patch-clamp (APC) technique on mammalian Chinese hamster ovary (CHO) cells stably expressing human hERG. […] We employed a voltage-ladder protocol to obtain information on SCRA effects on the channel’s voltage dependence of activation (V50) and maximal conductance (Gmax) (both determined from Boltzmann fits of the instantaneous tail currents; see Methods for details).
Stably expressing cell lines “CHO-hERG DUO” (here referred to as hERG; gene: KCNH2) and “CHO-KVLQT1/mink” (here referred to as KV7.1/KCNE1; gene: KCNQ1/KCNE1), (B’SYS GmBH, Witterswil, Switzerland) were used to study whole-cell K^+ currents on a QPatch II 48 APC system (Sophion Bioscience A/S, Ballerup, Denmark). Cell culture and passaging were performed in accordance with standard operating procedures. Cells were harvested in serum-free medium with Detachin^TM (Genlantis, CA, USA) immediately prior to experiments. For MPC on transient cell lines, CHO-K1 CCL-61 cells (ATCC, Manassas, VA, USA) were cultured in Ham’s F-12 medium supplemented with 10% fetal bovine serum (FBS) and 100 U/mL penicillin–100 µg/mL streptomycin (Gibco, Thermo Fisher Scientific, Waltham, MA, USA). Transfection was carried out using JetOPTIMUS® reagent (Polyplus, Strasbourg, France) according to the manufacturer’s protocol. Briefly, 80,000 cells were seeded per well in a 12-well plate and transfected with 300 ng of pcDNA3-GFP plasmid, 700 ng of pcDNA3-hERG plasmid with either the wild-type or mutant channels (S624A, S649A, or Y652A), and […] of JetOPTIMUS. After 8 h, cells were detached and reseeded at a density of 30,000 cells per well onto several poly-D-lysine-coated glass coverslips placed in a 12-well plate. For the CB1 receptor activity assay, the AequoScreen® recombinant Chinese hamster ovary (CHO) K1 cell line, stably expressing the human CB1 receptor (ES-110-A), was used (Revvity, Sollentuna, Sweden).
Automated patch-clamp recordings were performed at 22 °C. Freshly harvested cell suspensions (2–3 million cells/mL) were prepared for experiments by the QPatch II 48 automated cell preparation unit. Cells were centrifuged for 150 s at 150 × g and washed twice with the extracellular recording solution. Cells were handled by the integrated pipetting robot and added to the 48 experiment sites on the planar patch-clamp consumable QPlate. Each experiment site contained an individual pair of recording electrodes and a silicon/glass biochip embedded in the flow channels. Single-cell patch recordings (n = 1 is defined as one single-cell patch) and population patch recordings (up to 10 cells per well, n = 1 is defined as one population patch) were performed for hERG and for KV7.1/KCNE1, respectively. Cells were applied, positioned and sealed to the patch holes by a mild suction protocol; whole-cell access was then achieved by a stronger suction pulse.
The intracellular solution contained (in mM): 100 KCl, 4.3 CaCl2, 1.4 MgCl2, 25/10 KOH/EGTA, 24 KF, 10 HEPES, and 4 Mg-ATP (hERG) or 4 Na-ATP (KV7.1/KCNE1). […] The compounds were pre-diluted in DMSO, and the final concentration of DMSO (0.3%) was equal in all recording solutions to control for vehicle effects. The compounds made no contact with plastics following dilution in extracellular solution.
An overview of experimental conditions is provided in SI Table VII, Square voltage pulses in a voltage ladder protocol were used to study current/voltage (I(V)) relationships. Each voltage protocol was first run three times in the presence of vehicle (extracellular solution supplemented with 0.3% DMSO), the 3rd serving as the baseline. Voltage protocols were repeated in the presence of 4 cumulatively rising concentrations of test compound, followed by application of vehicle for recovery.

[3] = target: T1, human CB1 receptor (Homo sapiens, UniProt P21554); assay: AequoScreen intracellular calcium release assay, CHO-K1 cells stably expressing CB1; type: cell-based
T1 construct: host or cells: CHO-K1 stably expressing CB1, apoaequorin and Gα16

[4] = best fit, 1 = no reduction of Gmax, APC, 22 °C
[5] = read-out: hERG channel Potency IC50 (Gmax reduction), APC, 22 °C, best fit
[6] = normalized to maximum of JWH-018, n ≥ 3 (JWH-030 n = 2)
[7] = normalized to median EC50 of JWH-018, n ≥ 3 (JWH-030 n = 2), read-out: CB1 receptor Potency EC50
[8] = APC, best fit, read-out: KV7.1/KCNE1 channel Potency IC50 (Gmax reduction)
[9] = experimentally observed effect of 10 µM, used in ORd simulation
[10] = CB1 receptor Potency EC50, normalized to median EC50 of JWH-018, n ≥ 3 (JWH-030 n = 2)

hERG (KV11.1), sequence (Q12809 whole entry): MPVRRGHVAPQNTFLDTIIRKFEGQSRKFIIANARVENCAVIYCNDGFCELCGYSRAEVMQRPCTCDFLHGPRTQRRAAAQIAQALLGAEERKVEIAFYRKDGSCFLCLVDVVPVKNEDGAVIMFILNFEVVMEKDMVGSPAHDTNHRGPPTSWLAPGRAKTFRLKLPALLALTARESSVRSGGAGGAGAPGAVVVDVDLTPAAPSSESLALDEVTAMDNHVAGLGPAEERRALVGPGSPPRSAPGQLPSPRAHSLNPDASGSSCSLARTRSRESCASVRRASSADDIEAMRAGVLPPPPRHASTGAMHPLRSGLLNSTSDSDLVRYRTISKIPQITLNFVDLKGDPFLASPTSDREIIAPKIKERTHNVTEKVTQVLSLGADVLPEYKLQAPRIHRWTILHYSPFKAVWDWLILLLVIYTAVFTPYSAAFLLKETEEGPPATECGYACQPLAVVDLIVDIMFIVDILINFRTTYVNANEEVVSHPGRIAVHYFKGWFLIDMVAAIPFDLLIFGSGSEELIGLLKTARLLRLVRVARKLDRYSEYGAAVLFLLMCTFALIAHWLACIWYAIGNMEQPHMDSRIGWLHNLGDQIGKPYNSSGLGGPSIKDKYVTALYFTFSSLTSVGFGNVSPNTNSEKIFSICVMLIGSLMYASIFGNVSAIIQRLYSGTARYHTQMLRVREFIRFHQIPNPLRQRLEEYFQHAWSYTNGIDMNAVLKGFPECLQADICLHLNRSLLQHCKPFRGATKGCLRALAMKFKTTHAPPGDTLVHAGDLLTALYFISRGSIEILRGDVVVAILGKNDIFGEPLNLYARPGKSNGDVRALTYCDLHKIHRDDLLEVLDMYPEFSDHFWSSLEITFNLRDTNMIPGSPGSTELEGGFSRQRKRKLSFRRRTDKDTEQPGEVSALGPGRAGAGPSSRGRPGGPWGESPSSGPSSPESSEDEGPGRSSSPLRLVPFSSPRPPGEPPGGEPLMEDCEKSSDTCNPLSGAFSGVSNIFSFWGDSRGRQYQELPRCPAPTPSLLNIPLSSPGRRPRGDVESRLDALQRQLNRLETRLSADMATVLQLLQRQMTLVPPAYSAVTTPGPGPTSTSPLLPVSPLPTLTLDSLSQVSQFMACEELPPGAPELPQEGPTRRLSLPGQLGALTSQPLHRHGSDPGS
T1 sequence (P21554 whole entry): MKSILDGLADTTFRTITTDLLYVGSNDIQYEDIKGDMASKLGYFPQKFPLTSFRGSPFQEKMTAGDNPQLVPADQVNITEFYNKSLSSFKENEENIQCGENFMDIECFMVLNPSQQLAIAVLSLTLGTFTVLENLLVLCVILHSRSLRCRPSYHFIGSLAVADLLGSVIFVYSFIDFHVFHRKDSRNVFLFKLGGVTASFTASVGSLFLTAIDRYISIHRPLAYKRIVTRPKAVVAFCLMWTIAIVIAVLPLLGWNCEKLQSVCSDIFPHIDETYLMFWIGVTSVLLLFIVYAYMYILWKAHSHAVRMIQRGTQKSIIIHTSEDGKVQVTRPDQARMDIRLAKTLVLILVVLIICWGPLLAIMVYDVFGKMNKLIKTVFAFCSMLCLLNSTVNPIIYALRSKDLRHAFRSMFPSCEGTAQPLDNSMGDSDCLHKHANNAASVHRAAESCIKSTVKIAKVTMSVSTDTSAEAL
KV7.1/KCNE1, sequence (P51787 whole entry): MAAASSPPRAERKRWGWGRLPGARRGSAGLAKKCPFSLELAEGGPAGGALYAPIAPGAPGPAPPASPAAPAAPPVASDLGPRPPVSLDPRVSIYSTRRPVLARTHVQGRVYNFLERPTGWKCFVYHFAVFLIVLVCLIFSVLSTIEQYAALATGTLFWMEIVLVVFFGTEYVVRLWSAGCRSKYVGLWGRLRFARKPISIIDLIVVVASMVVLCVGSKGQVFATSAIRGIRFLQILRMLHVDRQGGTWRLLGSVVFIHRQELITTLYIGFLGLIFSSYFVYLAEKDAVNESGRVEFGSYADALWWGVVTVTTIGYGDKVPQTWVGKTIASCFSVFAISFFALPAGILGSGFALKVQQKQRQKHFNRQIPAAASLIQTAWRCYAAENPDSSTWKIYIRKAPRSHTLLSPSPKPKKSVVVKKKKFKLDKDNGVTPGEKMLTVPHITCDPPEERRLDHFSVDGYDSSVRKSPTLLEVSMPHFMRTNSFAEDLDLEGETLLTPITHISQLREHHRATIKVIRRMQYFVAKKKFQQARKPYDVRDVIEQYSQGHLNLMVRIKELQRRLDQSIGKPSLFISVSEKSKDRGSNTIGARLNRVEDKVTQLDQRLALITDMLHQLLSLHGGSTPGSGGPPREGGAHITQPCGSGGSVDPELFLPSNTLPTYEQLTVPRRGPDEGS

Structure (SMILES)	KV7.1/KCNE1 channel Efficacy (max reduction in Gmax) Gmin, marked * [1]	effect on Gmax of hERG (in words) [2]	hERG channel Efficacy (max reduction in Gmax) Gmin [2, 4]	IC50 [2, 5]	CB1 receptor Efficacy Emax [3, 6]	EC50 [3, 7]	also measured
C=CCCCn1nc(C(=O)NC(C(N)=O)C(C)(C)C)c2ccccc21 (stereo not shown) [ADB-4en-PINACA]	1.13	no or limited effects	0.52	9.1 µM	117 % JWH-018	0.0174 µM	–
CC(C)(C)C(NC(=O)c1cn(CC2CCCCC2)c2ccccc12)C(N)=O (stereo not shown) [ADB-CHMICA]	–	–	0.48	5.2 µM	110 % JWH-018	0.0157 µM	IC50 [1, 8]: 13.4 µM; KV7.1/KCNE1 channel Efficacy (max reduction in Gmax) Gmin ([1]; best fit): 0.4
COC(=O)[C@@H](NC(=O)c1cn(CCCCF)c2ccccc12)C(C)(C)C [4F-MDMB-BUTICA]	0.87	–	0.35	26.2 µM	115 % JWH-018	0.0167 µM	–
COC(=O)[C@@H](NC(=O)c1nn(Cc2ccc(F)cc2)c2ccccc12)C(C)(C)C [MDMB-FUBINACA]	0.59	–	0.25	10.2 µM	103 % JWH-018	0.000795 µM	CB1 EC50 (in words) [3]: sub-nanomolar
CC(C)(C)[C@H](NC(=O)c1n[nH]c2ccc(Br)cc12)C(N)=O [ADB-5'Br-INACA]	1.04	no or limited effects	0.70	24.5 µM	111 % JWH-018	2.29 µM	–
CC(C)[C@H](NC(=O)c1nn(CC2CCCCC2)c2ccccc12)C(N)=O	0.72	–	0.00	51.2 µM	–	–	CB1 receptor Efficacy Emax [3]: 108 % JWH-018; EC50 ([3]; read-out: CB1 receptor Potency EC50): 0.00898 µM
CCCCn1nc(C(=O)NC(C(=O)OC)C(C)(C)C)c2cc(Br)ccc21 (stereo not shown) [MDMB-5'Br-BUTINACA]	0.60	–	0.67	–	114 % JWH-018	–	effect on KV7.1/KCNE1 (in words) ([1]; APC): both reduced Gmax and shifted V50 towards more positive voltages; IC50 [2]: 6.2 µM
CCCCCCn1nc(C(=O)NC(C(N)=O)C(C)(C)C)c2ccccc21 (stereo not shown) [ADB-HEXINACA]	–	–	0.037	–	117 % JWH-018	–	IC50 [1]: 1.99 µM; KV7.1/KCNE1 channel Efficacy (max reduction in Gmax) Gmin ([1]; best fit): 0.41; remaining IKs (KV7.1/KCNE1 Gmax) [1, 9]: 52%; IC50 [2]: 15.8 µM; remaining IKr (hERG Gmax) [2, 9]: 63%; EC50 [3, 10]: 0.0394 µM
CCCCCn1cc(C(=O)C2C(C)(C)C2(C)C)c2ccccc21 [UR-144]	0.92	non-inhibitor	–	–	101 % JWH-018	–	hERG channel Efficacy (max reduction in Gmax) Gmin, marked * ([2]; * Greatest efficacy achieved with a concentration between 10 and 30 µM (no fit), 1 = no reduction of Gmax): 0.94; EC50 [3, 10]: 0.414 µM
N#CCCCCn1nc(C(=O)NCc2ccccc2)c2ccccc21 [Benzyl-4CN-BUTINACA]	0.73	–	0.00	17.3 µM	109 % JWH-018	0.408 µM	–
CC1(C)C(C(=O)c2cn(CCCCCF)c3ccccc23)C1(C)C [XLR-11]	0.87	concentration-dependent inhibitory effects on Gmax	0.54	–	105 % JWH-018	–	IC50 [2]: 20.4 µM; EC50 [3, 10]: 0.26 µM
CCCCCCN1C(=O)C(=NNC(=O)c2ccccc2)c2ccccc21 [BZO-HEXOXIZID]	–	–	–	–	84.3 % JWH-018	5.13 µM	IC50 [1, 8]: 3 µM; KV7.1/KCNE1 channel Efficacy (max reduction in Gmax) Gmin ([1]; best fit): 0.44; hERG channel Efficacy (max reduction in Gmax) Gmin, marked ? ([2]; ? Unreliable values (fit failed QC, extrapolated)): 0.00; CB1 EC50 (in words) [3]: low micromolar
C=CCCCN1C(=O)/C(=N\NC(=O)c2ccccc2)c2ccccc21 [BZO-4en-POXIZID]	0.79	concentration-dependent inhibitory effects on Gmax	0.64	–	112 % JWH-018	–	IC50 [2]: 3.9 µM; EC50 [3, 10]: 1.7 µM
COC(=O)[C@@H](NC(=O)c1n[nH]c2ccc(Br)cc12)C(C)(C)C [MDMB-5'Br-INACA]	0.74	–	0.57	25.3 µM	110 % JWH-018	0.849 µM	–
COC(=O)C(NC(=O)c1cn(CC2CCCCC2)c2ccccc12)C(C)(C)C (stereo not shown) [MDMB-CHMICA]	0.78	clear inhibiting Gmax effects on hERG	0.55	–	107 % JWH-018	–	IC50 [2]: 3.2 µM; EC50 [3, 10]: 0.00307 µM
O=C(c1cccc2ccccc12)c1cn(CCCCCF)c2ccccc12 [AM-2201]	0.92	–	0.38	1.3 µM	99.7 % JWH-018	0.0258 µM	Gmax effect on hERG versus KV7.1/KCNE1 (in words) ([1]; 10 µM, both channels by APC): effects only on hERG
CC(C)(C)[C@H](NC(=O)c1nn(Cc2ccc(F)cc2)c2ccccc12)C(N)=O [ADB-FUBINACA]	0.81	–	0.25	13.7 µM	106 % JWH-018	0.00497 µM	–
